Primed or numbered codes have the meaning given here. *: point of attachment. 2at = 2-aminothiazol-4-yl N-terminal cap, Nc1nc(*)cs1; Hdc = hexadecyl (lipid tether group); PEG3′ = not defined here
Columns and labels:
Format in all cases: cell-based
PAR2 [1] = target: T1, PAR2 (Homo sapiens, UniProt P55085); experiment: RTCA screen (xCELLigence in vitro physiological signalling assay)
T1 sequence (P55085 26-397): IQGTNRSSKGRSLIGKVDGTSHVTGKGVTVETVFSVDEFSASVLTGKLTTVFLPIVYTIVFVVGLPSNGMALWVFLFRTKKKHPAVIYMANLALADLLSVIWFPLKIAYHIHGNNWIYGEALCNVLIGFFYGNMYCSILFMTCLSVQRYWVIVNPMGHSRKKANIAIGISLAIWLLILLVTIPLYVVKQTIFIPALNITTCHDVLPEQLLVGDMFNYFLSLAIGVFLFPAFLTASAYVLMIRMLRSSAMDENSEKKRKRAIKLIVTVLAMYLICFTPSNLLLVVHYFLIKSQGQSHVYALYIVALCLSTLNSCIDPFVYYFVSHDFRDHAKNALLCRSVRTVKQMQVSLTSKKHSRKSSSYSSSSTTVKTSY
Source text: FIGS. 5A-B show in vitro physiological PAR2 agonist screening using xCELLigence. […] This compound was a biased-signalling antagonist in that it had no effect on mitogen activated protein kinase (MAPK) signalling, the other major signalling pathway activated via PAR2. […] Thus, experiments screened a series of potential PAR2 ligands with a heterocycle serine substitute followed by four amino acids (XXGR) and the PEG3-Hdc lipid tether. […], C595 and […] are novel pharmacological tools that can be used to evaluate the physiological consequences of PAR2 full and biased ligand signalling.

PAR2 [2] = target: T1, PAR2; experiment: Mitogen activated protein kinase (MAPK) signalling activated via PAR2; conditions: for Effect on MAPK signalling (as antagonist): C608 at nanomolar concentrations
Source text: (§1) This compound was a biased-signalling antagonist in that it had no effect on mitogen activated protein kinase (MAPK) signalling, the other major signalling pathway activated via PAR2. […] C595 is closely related to the previously described potent and specific PAR2 agonist, 2-at-LIGR (SEQ ID NO: 1)-PEG3-Hdc. Thus, experiments screened a series of potential PAR2 ligands with a heterocycle serine substitute followed by four amino acids (XXGR) and the PEG3-Hdc lipid tether. […] C562, C595 and C608 are novel pharmacological tools that can be used to evaluate the physiological consequences of PAR2 full and biased ligand signalling.

PAR2 [3] = target: T1, PAR2; experiment: PAR2 Ca2+ signalling in cultured human bronchial epithelial cells (16HBE14o-); design: endogenous in cells; host or cells: 16HBE14o- human bronchial epithelial cells; conditions: for Block of PAR2 Ca2+ signalling elicited via protease activation: Alternaria alternata filtrates; for Block of PAR2 Ca2+ signalling elicited via protease activation / Block of PAR2 Ca2+ signalling elicited via peptidomimetics: 16HBE14o- cells, C608 at nanomolar concentrations; for Block of PAR2 Ca2+ signalling elicited via peptidomimetics: activation by 2-at-LIGRL-NH2
Source text: as §1

Substance | Compound Summary as Determined by RTCA Screen (PAR2 [1]) | also measured
2at-4thiazolamine-IGR-PEG3-Hdc [Compound 23] | No Activity at PAR2 Detected | 
2at-(dL)IGR-PEG3-Hdc [Compound 24] | No Activity at PAR2 Detected | 
2at-(dT)IGR-PEG3-Hdc [Compound 26] | No Activity at PAR2 Detected | 
2at-(dl)IGR-PEG3-Hdc [Compound 25] | No Activity at PAR2 Detected | 
2at-DIGR-PEG3-Hdc [Compound 15] | No Activity at PAR2 Detected | 
2at-HIGR-PEG3-Hdc [Compound 16] | PAR2 Agonist | 
2at-LIGR-PEG3-Hdc [Compound 12] | Full PAR2 Agonist | 
2at-LKGR-PEG3-Hdc [Compound 11] | Full PAR2 Agonist | 
2at-SHGR-PEG3-Hdc [Compound 8] | No Activity at PAR2 Detected | 
2at-SIGR-PEG3-Hdc [Compound 13] | No Activity at PAR2 Detected | 
2at-SKGR-PEG3-Hdc (2at-SKGR-{PEG3′-Hdc}) [Compound 6] |  | Antagonistic activity against peptidomimetic activation (PAR2 [1]; xCELLigence in vitro physiological signalling assay): maintained antagonistic activity
2at-SKGRS-PEG3-Hdc (2at-SKGRS-{PEG3′-Hdc}) [Compound 5] | PAR2 Antagonist | Effect on MAPK signalling (as antagonist) (PAR2 [2]): no effect; Block of PAR2 Ca2+ signalling elicited via protease activation (PAR2 [3]): blocks PAR2 Ca^2+ signalling; Block of PAR2 Ca2+ signalling elicited via peptidomimetics (PAR2 [3]): blocks PAR2 Ca^2+ signalling
2at-SRGR-PEG3-Hdc [Compound 7] | No Activity at PAR2 Detected | 
2at-TIGR-PEG3-Hdc (2at-TIGR-{PEG3′-Hdc}) [Compound 14] | PAR2 Agonist and Antagonist | RTCA signalling profile (agonist/antagonist) (PAR2 [1]; listed as C608): Partial RTCA agonist and potent anatagonist (low concentrations); MAPK pathway profile (agonist/antagonist) (PAR2 [2]): Full MAPK agonist; Effect on MAPK signalling (as antagonist) (PAR2 [2]): without effects on MAPK signalling; Ca2+ signalling profile (agonist/antagonist) (PAR2 [3]): Partial Ca^2+ signalling agonist and potent antagonist (low concentrations); Block of PAR2 Ca2+ signalling elicited via protease activation (PAR2 [3]): blocked PAR2-dependent Ca^2+ signalling; Block of PAR2 Ca2+ signalling elicited via peptidomimetics (PAR2 [3]): blocked PAR2-dependent Ca^2+ signalling
2at-TKGR-PEG3-Hdc [Compound 10] | No Activity at PAR2 Detected | 
2at-VIGR-PEG3-Hdc [Compound 17] | PAR2 Agonist | 
2at-homoserine-IGR-PEG3-Hdc [Compound 21] | PAR2 Agonist | 
2at-hydroxyproline-IGR-PEG3-Hdc [Compound 20] | No Activity at PAR2 Detected | 
2at-penicillamine-IGR-PEG3-Hdc [Compound 22] | No Activity at PAR2 Detected | 

— patent US11351264B2, “PAR2 mimetic peptides and uses thereof” (ARIZONA BOARD OF REGENTS ON BEHALF OF THE UNIVERSITY OF …, priority 2016, dated 2022)
